The results in this text go back to PMC5435703 (Scientific Reports, 2017).

One series concerns MtB H37Ra. Kind of series: MIC assay for Mycobacterium tuberculosis. Format: cell-based. The settings on record: 168 h, seven days.
The next series has as its system S. epi 12228. Kind of series: MIC broth microdilution assay. The class given is cell-based, Staphylococcus epidermidis. Conditions: Staphylococcus epidermidis, 12228; Table 1; read-out: MIC S. epi 12228.
For another series, the system named is MRSA BAA-44. Kind of series: MIC broth microdilution assay. The settings on record: Staphylococcus aureus. The class given is cell-based.
For series [1], the system named is MRSA BAA-1707. The experiment in a line: Calgary Biofilm Device (CBD) MBC/MBEC assay. Format: cell-based, Staphylococcus aureus. Conditions: Staphylococcus aureus, 24 h.
A further series concerns MRSA-2. Kind of series: MIC broth microdilution assay. Conditions: Staphylococcus aureus, MRSA; Table 1; read-out: MIC MRSA-2. The class given is cell-based, Staphylococcus aureus.
Series [2] in a line: Chemical stability in aqueous formulations. Format: physicochemical. Conditions: room temperature.
Series [3] in a line: LDH release assay for HeLa cytotoxicity. Format: cell-based. Conditions: human, HeLa cells; LDH release, 24 hours; tested at 25, 50 and 100 µM; read-out: HeLa Cytotox. IC50.
The test system of another series is HeLa cells. Kind of series: LDH release assay for HeLa cytotoxicity. The class given is cell-based. The settings on record: 100 µM.
The test system of series [4] is MRSE 35984. Kind of series: MIC broth microdilution assay. Format: cell-based, Staphylococcus epidermidis. Conditions: Staphylococcus epidermidis, MRSE.
In series [5] the test system is VRE 700221. The experiment in a line: MIC broth microdilution assay. Conditions: Enterococcus, VRE. The class given is cell-based, Enterococcus faecium.
Series [6] concerns MRSE 35984. The experiment in a line: Calgary Biofilm Device (CBD) MBC/MBEC assay. The class given is cell-based, Staphylococcus epidermidis. Conditions: for MBC: read-out: MRSE 35984 MBC.
Series [7] in a line: Hemolysis assay with red blood cells. Conditions: human, pH 7.2.
The test system of another series is MRSA-1. The experiment in a line: MIC broth microdilution assay. The class given is cell-based, Staphylococcus aureus. Conditions: Staphylococcus aureus, MRSA; Table 1; read-out: MIC MRSA-1.
In series [8] the test system is MRSA BAA-1707. The experiment in a line: MIC broth microdilution assay. The settings on record: Staphylococcus aureus. The class given is cell-based, Staphylococcus aureus.
Series [9] relates to MRSA BAA-1707. Kind of series: MIC assay with metal(II) cation co-treatment. The class given is cell-based, Staphylococcus aureus. Conditions: Staphylococcus aureus.
A further series concerns human red blood cells. Conditions: human, 1 h, pH 7.2.
The test system of series [10] is VRE 700221. Kind of series: Calgary Biofilm Device (CBD) MBC/MBEC assay. Format: cell-based, Enterococcus faecium. Conditions: Enterococcus, VRE.
[11] abbreviates: supplement page 28, single CBD plate.

In brackets after ≈: the same amount, converted by molar mass. Like-named read-outs stand apart in the source and are kept apart here.

Regarding `COCCOCCOCCOCCOC(=O)Oc1c(Br)cc(Br)c2nc3ccccc3nc12` [HP 24], the MIC in the series with MtB H37Ra came out at 25 µM (≈ 14.7 µg/mL); in the series with S. epi 12228 it was 0.78 µM (≈ 0.459 µg/mL); in the series with MRSA BAA-44 (single plate shown as picture, read-out: MIC (µM), MIC Assay Against MRSA BAA-44), 1.56 µM (≈ 0.918 µg/mL); in the series on MRSA BAA-44 (Table 1, read-out: MIC MRSA BAA-44), 1.56 µM (≈ 0.918 µg/mL); in the series on MRSA-2, 2.35 µM (≈ 1.38 µg/mL); in the series with MRSE 35984 [4] (Table 1, read-out: MIC MRSE 35984), 1.56 µM (≈ 0.918 µg/mL). The MIC turned out to be 1.56 µM (≈ 0.918 µg/mL) in the series on MRSE 35984 [4] (Table 3, read-out: MRSE 35984 MIC); 6.25 µM (≈ 3.68 µg/mL) in the series with VRE 700221 [5] (Table 1, read-out: MIC VRE 700221); 6.25 µM (≈ 3.68 µg/mL) in the series with VRE 700221 [5] (Table 3, read-out: VRE 700221 MIC). Moreover, the MBC in the series on MRSA BAA-1707 [1] (CBD, planktonic killing, 24 hours treatment, read-out: MRSA BAA-1707 MBC) was 75 µM (≈ 44.1 µg/mL); with MRSA BAA-1707 [1] (supplement page 27, second CBD plate, read-out: MRSA Planktonic Killing MBC), 100 µM (≈ 58.8 µg/mL); in the series with MRSE 35984 [6] (Staphylococcus epidermidis, MRSE, CBD, planktonic killing), 75 µM (≈ 44.1 µg/mL). In series [2], the “chemically stable in aqueous formulations” value was above 1 month. Further, the IC50 at 24 h in [3] is above 100 µM. The “HeLa cell cytotoxicity at 100 µM” value in the series with HeLa cells is “no HeLa cell cytotoxicity”. Further, the “MRSE Biofilm Eradication MBEC” value with MRSE 35984 [6] (setting [11]) came out at 100 µM. The “MRSE Planktonic Killing MBC” value in the series with MRSE 35984 [6] (setting [11]) is 50 µM. The hemolysis at 1 h, 200 µM in [7] came to 2.4%.
In the case of `O=C(O)CN(CCN(CC(=O)O)CC(=O)O)CC(=O)O` [EDTA, ethylenediaminetetraacetic acid, reference compound], the MIC in the series with MRSA-1 was found to be 12.5 µM (≈ 3.65 µg/mL); with MRSA BAA-1707 [8] (Table 1, three independent experiments, read-out: MIC MRSA BAA-1707) it was 25 µM (≈ 7.31 µg/mL); in the series on MRSA BAA-1707 [8] (Table 3, read-out: MRSA BAA-1707 MIC), 25 µM (≈ 7.31 µg/mL); in the series on MRSA BAA-1707 [9] (Table 2, MRSA BAA-1707, no metal(II) cation added, read-out: MIC), 25 µM; in the series with MRSA BAA-1707 [9] (copper(II) at 200 µM co-treatment, read-out: MIC w/Cu2+), 50 µM; in the series with MRSA BAA-1707 [9] (iron(II) at 200 µM co-treatment, read-out: MIC w/Fe2+), 50 µM. Besides, the MIC in the series with MRSA BAA-1707 [9] (magnesium(II) at 200 µM co-treatment, read-out: MIC w/Mg2+) turned out to be 50 µM; in the series on MRSA BAA-1707 [9] (zinc(II) at 200 µM co-treatment, read-out: MIC w/Zn2+), 50 µM. Besides, the MBC in the series on MRSA BAA-1707 [1] (read-out: MRSA BAA-1707 MBC) is above 2000 µM; with MRSE 35984 [6] (Staphylococcus epidermidis, MRSE), 1000 µM (≈ 292 µg/mL); with VRE 700221 [10] (read-out: VRE 700221 MBC), above 2000 µM. The minimal effective concentration is above 2000 µM in the series on MRSA BAA-1707 [1] (read-out: MRSA BAA-1707 MBEC); above 2000 µM in the series with MRSE 35984 [6] (Staphylococcus epidermidis, MRSE, 24 h, read-out: MRSE 35984 MBEC); 93.8 µM in the series on VRE 700221 [10] (24 h, read-out: VRE 700221 MBEC). Besides, the “Hemolysis at 200 µM (%)” value with human red blood cells is reported as at most 1%.
